Data reported in ChEMBL document CHEMBL3045771, “Structure-Activity Relationships of Enantiomers of the Azole Fungicide Ipconazole and Its Related Compounds” (1998).
In brackets after ≈: the same amount, converted by molar mass.

What was measured:
Format in all cases: functional
Pyricularia oryzae = experiment: Antifungal activity against Magnaporthe oryzae on potato sucrose agar medium at 28 or 20 degC for 2 or 3 days
[1] = test system: Fusarium oxysporum f. sp. cucumerinum; experiment: Antifungal activity against Fusarium oxysporum f. sp. cucumerinum on potato sucrose agar medium at 28 or 20 degC for 2 or 3 days
Cercospora beticola = experiment: Antifungal activity against Cercospora beticola on potato sucrose agar medium at 28 or 20 degC for 2 or 3 days
Alternaria mali = experiment: Antifungal activity against Alternaria mali on potato sucrose agar medium at 28 or 20 degC for 2 or 3 days
[2] = test system: Colletotrichum gloeosporioides; experiment: Antifungal activity against Glomerella cingulata on potato sucrose agar medium at 28 or 20 degC for 2 or 3 days
Monilinia fructicola = experiment: Antifungal activity against Monilinia fructicola on potato sucrose agar medium at 28 or 20 degC for 2 or 3 days
Sclerotinia sclerotiorum = experiment: Antifungal activity against Sclerotinia sclerotiorum on potato sucrose agar medium at 28 or 20 degC for 2 or 3 days
Rhizoctonia solani = experiment: Antifungal activity against Rhizoctonia solani on potato sucrose agar medium at 28 or 20 degC for 2 or 3 days
Fusarium fujikuroi = experiment: Antifungal activity against Fusarium fujikuroi on potato sucrose agar medium at 28 or 20 degC for 2 or 3 days
Bipolaris oryzae = experiment: Antifungal activity against Bipolaris oryzae on potato sucrose agar medium at 28 or 20 degC for 2 or 3 days
Triticum aestivum = experiment: Inhibition of Triticum aestivum (wheat) Nourin 64 growth assessed as first leaf sheath length of seedlings measured as growth rate at 125 ug/ml for 24 hr relative to control; parameters: scale not given: the % may be the effect or the level left
Botrytis cinerea = experiment: Antifungal activity against Botryotinia fuckeliana on potato sucrose agar medium at 28 or 20 degC for 2 or 3 days
Colletotrichum lagenaria = experiment: Antifungal activity against Colletotrichum lagenaria on potato sucrose agar medium at 28 or 20 degC for 2 or 3 days
Cucumis sativus = experiment: Inhibition of Cucumis sativus (cucumber) growth assessed as stem length of first leaf of seedlings measured as growth rate at 125 ug/ml for 24 hr relative to control; parameters: scale not given: the % may be the effect or the level left

Row | Compound | MIC (Pyricularia oryzae) [µg/mL] | MIC [1] [µg/mL] | MIC (Cercospora beticola) [µg/mL] | MIC (Alternaria mali) [µg/mL] | MIC [2] [µg/mL] | MIC (Monilinia fructicola) [µg/mL] | MIC (Sclerotinia sclerotiorum) [µg/mL] | MIC (Rhizoctonia solani) [µg/mL] | MIC (Fusarium fujikuroi) [µg/mL] | MIC (Bipolaris oryzae) [µg/mL] | Activity (Triticum aestivum) [%] | MIC (Botrytis cinerea) [µg/mL] | MIC (Colletotrichum lagenaria) [µg/mL] | Activity (Cucumis sativus) [%]
1 | O[C@]1(Cn2cncn2)CCC[C@@H]1Cc1ccc(Cl)cc1 | 6.3 (≈ 21.6 µM) | > 100 | > 100 | > 100 | 25 (≈ 85.7 µM) | < 0.2 | 13 (≈ 44.6 µM) | > 100 | 13 (≈ 44.6 µM) | 25 (≈ 85.7 µM) | 41 | 3.1 (≈ 10.6 µM) | > 100 | 80
2 | CC(C)[C@@H]1CC[C@H](Cc2ccc(Cl)cc2)[C@@]1(O)Cn1cncn1 | 3.1 (≈ 9.29 µM) | 3.1 (≈ 9.29 µM) | 25 (≈ 74.9 µM) | 6.3 (≈ 18.9 µM) | 1.6 (≈ 4.79 µM) | < 0.2 | < 0.2 | 13 (≈ 38.9 µM) | 0.2 (≈ 0.599 µM) | 13 (≈ 38.9 µM) | 105 | 0.2 (≈ 0.599 µM) | 0.8 (≈ 2.4 µM) | 118
3 | CC(C)[C@H]1CC[C@H](Cc2ccc(Cl)cc2)[C@@]1(O)Cn1cncn1 | 1.6 (≈ 4.79 µM) | 0.4 (≈ 1.2 µM) | 13 (≈ 38.9 µM) | 3.1 (≈ 9.29 µM) | 0.4 (≈ 1.2 µM) | < 0.2 | 0.8 (≈ 2.4 µM) | 100 (≈ 300 µM) | 0.2 (≈ 0.599 µM) | 13 (≈ 38.9 µM) | 96 | 0.4 (≈ 1.2 µM) | < 0.2 | 113
4 | CC(C)[C@H]1CC[C@@H](Cc2ccc(Cl)cc2)[C@]1(O)Cn1cncn1 | 100 (≈ 300 µM) | > 100 | > 100 | > 100 | 25 (≈ 74.9 µM) | < 0.2 | 50 (≈ 150 µM) | 100 (≈ 300 µM) | > 100 | 50 (≈ 150 µM) | 109 | 25 (≈ 74.9 µM) | > 100 | 117
5 | CC(C)[C@@H]1CC[C@@H](Cc2ccc(Cl)cc2)[C@]1(O)Cn1cncn1 | 13 (≈ 38.9 µM) | > 100 | > 100 | > 100 | 25 (≈ 74.9 µM) | < 0.2 | > 100 | > 100 | > 100 | 50 (≈ 150 µM) | 92 | 25 (≈ 74.9 µM) | 50 (≈ 150 µM) | 104
6 | O[C@@]1(Cn2cncn2)CCC[C@H]1Cc1ccc(Cl)cc1 | 100 (≈ 343 µM) | > 100 | > 100 | > 100 | > 100 | 13 (≈ 44.6 µM) | > 100 | > 100 | > 100 | > 100 | 94 | > 100 | > 100 | 90
7 | C[C@H]1CC[C@@H](Cc2ccc(Cl)cc2)[C@]1(O)Cn1cncn1 | 50 (≈ 164 µM) | > 100 | > 100 | > 100 | > 100 | 13 (≈ 42.5 µM) | > 100 | > 100 | > 100 | > 100 | 92 | 100 (≈ 327 µM) | > 100 | 97
8 | C[C@@H]1CC[C@H](Cc2ccc(Cl)cc2)[C@@]1(O)Cn1cncn1 | 3.1 (≈ 10.1 µM) | > 100 | > 100 | > 100 | 13 (≈ 42.5 µM) | < 0.2 | 3.1 (≈ 10.1 µM) | > 100 | 3.1 (≈ 10.1 µM) | 25 (≈ 81.8 µM) | 38 | 3.1 (≈ 10.1 µM) | 100 (≈ 327 µM) | 43
9 | CC[C@H]1CC[C@@H](Cc2ccc(Cl)cc2)[C@]1(O)Cn1cncn1 | 25 (≈ 78.2 µM) | > 100 | > 100 | > 100 | 25 (≈ 78.2 µM) | 1.6 (≈ 5 µM) | 100 (≈ 313 µM) | 100 (≈ 313 µM) | > 100 | 50 (≈ 156 µM) | 77 | 25 (≈ 78.2 µM) | 50 (≈ 156 µM) | 98
